Experimental data reported in EP1099438A2, “Use of APO B secretion/MTP inhibitors” (Pfizer Products Inc., priority 1999, dated 2001).

System: food intake
Test: food intake reduction determination protocol in dogs
Type: in vivo
Conditions: male beagles, oral gavage, dosing solution 0.5 mg/mL at 1 mL per kg body weight, single dose on Days 0 and 5-12; 24 hour food consumption versus amount consumed prior to Day 0
Source text: Healthy, young adult (1-2 years of age) male beagles (Marshall Farms, North Rose, New York, NY 14516) weighing 11.45 - 12.45 kg at the start of the treatment period were employed as test subjects. The animals were housed individually in standard caging meeting or exceeding the USDA regulations (U.S. Department of Agriculture, Animal Welfare, Final Rules. 9 C.F.R. Parts 1-3, 1995).
The test compound was provided as a water-soluble powder. The dosing solution, administered by oral gavage, was provided employing a 0.025 M citrate buffer (approx. pH = 3) prepared using anhydrous citric acid (0.4 g/mL) and anhydrous sodium citrate (0.1 g/mL) as the test vehicle. The dosing solution was prepared at 0.5 mg/mL activity so that 1 mL was delivered per kg body weight. Following a fourteen day acclimation period (designated as Days -14 to -1), during which time the test animals were evaluated for certain criteria including determination of body weight and physical examinations, a sixteen day evaluation study was effected.
The study consisted of one group of animals containing five dogs. On Days 0 and 5-12, each dog received the dosing solution administered as a single dose at Time 0 on each dosing day via a feeding tube. […]
Reduction in food intake was quantitated by weighing individual food bowls each day prior to feeding and at the end of each 24 hour consumption period. […]

Compound: CC(=O)NCCN1CCc2cc(NC(=O)c3ccccc3-c3ccc(C(F)(F)F)cc3)ccc2C1 [4'-trifluoromethyl-biphenyl-2-carboxylic acid-[2-(2-acetylaminoethyl)-1,2,3,4-tetrahydroisoquinolin-6-yl amide]
- reduced food intake in dogs: 58%

Compound: CCCCN1CCc2cc(NC(=O)c3ccccc3-c3ccc(C(F)(F)F)cc3)ccc2C1 [4'-trifluoromethyl-biphenyl-2-carboxylic acid-(2-butyl-1,2,3,4-tetrahydroisoquinolin-6-yl)-amide]
- reduced food intake in dogs: 30%
